Test [1] deals with Beta-2 adrenergic receptor (Homo sapiens, UniProt P07550). In kind it is functional, cell-based.
For the next test, the target named is T1, B2 bradykinin receptor (Homo sapiens, UniProt P30411).
T1 sequence (P30411 whole entry): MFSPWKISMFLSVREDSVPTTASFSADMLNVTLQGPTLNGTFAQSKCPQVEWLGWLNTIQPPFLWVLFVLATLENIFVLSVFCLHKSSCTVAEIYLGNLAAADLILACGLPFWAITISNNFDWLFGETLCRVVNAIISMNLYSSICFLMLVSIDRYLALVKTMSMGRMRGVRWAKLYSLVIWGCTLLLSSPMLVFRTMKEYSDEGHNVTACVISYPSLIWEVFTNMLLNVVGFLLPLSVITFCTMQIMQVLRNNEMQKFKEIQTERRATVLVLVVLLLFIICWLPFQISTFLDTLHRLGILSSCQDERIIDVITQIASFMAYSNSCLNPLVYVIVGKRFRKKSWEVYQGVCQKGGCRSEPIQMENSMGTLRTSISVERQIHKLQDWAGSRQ

The target of test [2] is Gamma-aminobutyric acid receptor subunit alpha-1/alpha-2/beta-2/gamma-2 (Homo sapiens, UniProt P14867+P18507+P47869+P47870). The class given is protein-complex assay.
Another test addresses Acetylcholinesterase (Homo sapiens, UniProt P22303). The class given is functional.
Test [3] concerns the target Vascular endothelial growth factor receptor 2 (Homo sapiens, UniProt P35968). The class given is functional.
The target of the next test is T2, Glucocorticoid receptor (Homo sapiens, UniProt P04150).
T2 sequence (P04150 whole entry): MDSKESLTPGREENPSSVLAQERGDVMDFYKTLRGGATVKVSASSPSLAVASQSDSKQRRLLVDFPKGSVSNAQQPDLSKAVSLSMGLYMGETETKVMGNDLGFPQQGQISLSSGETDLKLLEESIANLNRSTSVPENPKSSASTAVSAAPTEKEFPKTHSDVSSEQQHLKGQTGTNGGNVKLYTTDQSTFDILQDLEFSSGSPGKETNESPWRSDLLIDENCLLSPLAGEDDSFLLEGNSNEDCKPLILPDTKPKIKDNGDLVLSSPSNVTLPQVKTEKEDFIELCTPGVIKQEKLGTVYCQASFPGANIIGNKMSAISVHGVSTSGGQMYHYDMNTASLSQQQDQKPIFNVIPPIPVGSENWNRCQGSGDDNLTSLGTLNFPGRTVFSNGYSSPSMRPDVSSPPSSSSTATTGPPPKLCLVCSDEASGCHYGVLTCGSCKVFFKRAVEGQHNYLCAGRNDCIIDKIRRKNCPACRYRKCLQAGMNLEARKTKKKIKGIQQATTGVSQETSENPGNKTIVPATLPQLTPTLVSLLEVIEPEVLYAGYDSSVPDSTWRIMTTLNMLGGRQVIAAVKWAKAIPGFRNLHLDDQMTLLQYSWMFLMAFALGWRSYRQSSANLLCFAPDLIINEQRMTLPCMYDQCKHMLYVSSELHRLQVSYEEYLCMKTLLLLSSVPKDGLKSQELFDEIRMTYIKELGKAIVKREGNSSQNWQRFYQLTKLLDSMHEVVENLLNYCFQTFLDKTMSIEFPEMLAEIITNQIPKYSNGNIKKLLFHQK

Test [4] has as its target T3, Alpha-1A adrenergic receptor (Homo sapiens, UniProt P35348).
T3 sequence (P35348 whole entry): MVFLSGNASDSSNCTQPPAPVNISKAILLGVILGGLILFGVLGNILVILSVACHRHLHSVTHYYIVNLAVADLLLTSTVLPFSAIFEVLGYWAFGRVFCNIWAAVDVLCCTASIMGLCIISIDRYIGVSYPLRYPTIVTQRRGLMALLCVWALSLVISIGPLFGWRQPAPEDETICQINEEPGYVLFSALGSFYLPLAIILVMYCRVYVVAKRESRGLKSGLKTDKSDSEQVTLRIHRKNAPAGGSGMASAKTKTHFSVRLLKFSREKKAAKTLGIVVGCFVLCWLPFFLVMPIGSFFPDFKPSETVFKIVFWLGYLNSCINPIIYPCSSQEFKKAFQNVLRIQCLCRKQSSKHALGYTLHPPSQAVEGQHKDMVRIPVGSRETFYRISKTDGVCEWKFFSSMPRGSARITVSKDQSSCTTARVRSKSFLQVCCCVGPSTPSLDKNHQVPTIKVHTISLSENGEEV
In kind it is functional, cell-based.

The next test addresses T4, Progesterone receptor (Homo sapiens, UniProt P06401).
T4 sequence (P06401 whole entry): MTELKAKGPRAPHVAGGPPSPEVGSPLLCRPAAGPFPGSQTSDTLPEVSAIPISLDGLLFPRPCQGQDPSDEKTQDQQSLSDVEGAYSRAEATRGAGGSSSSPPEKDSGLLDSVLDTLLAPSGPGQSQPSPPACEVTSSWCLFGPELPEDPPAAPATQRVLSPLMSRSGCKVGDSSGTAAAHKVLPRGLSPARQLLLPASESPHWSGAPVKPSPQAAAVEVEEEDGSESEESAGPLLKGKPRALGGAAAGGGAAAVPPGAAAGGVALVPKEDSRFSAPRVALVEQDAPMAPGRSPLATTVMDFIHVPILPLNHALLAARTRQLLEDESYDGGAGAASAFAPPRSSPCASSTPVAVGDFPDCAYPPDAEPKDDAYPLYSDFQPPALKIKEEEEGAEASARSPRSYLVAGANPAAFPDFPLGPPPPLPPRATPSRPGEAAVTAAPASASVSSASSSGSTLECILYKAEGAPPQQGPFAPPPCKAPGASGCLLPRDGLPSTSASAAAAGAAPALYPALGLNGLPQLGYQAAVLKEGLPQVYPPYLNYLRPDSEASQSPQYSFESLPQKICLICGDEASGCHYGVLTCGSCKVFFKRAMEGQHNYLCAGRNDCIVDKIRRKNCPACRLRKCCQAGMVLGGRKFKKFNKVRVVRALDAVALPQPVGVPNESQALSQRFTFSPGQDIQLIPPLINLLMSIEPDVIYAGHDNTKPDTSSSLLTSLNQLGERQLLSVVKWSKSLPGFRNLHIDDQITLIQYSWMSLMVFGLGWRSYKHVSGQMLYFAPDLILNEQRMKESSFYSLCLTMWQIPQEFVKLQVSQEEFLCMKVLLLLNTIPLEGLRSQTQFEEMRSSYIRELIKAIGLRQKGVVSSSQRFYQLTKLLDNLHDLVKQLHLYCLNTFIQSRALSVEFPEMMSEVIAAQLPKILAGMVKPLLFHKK
The class given is functional.

A value given as a limit tells only on which side of the number the result lay.
Also: assay procedure not described here.

Sequence of Beta-2 adrenergic receptor (P07550 whole entry): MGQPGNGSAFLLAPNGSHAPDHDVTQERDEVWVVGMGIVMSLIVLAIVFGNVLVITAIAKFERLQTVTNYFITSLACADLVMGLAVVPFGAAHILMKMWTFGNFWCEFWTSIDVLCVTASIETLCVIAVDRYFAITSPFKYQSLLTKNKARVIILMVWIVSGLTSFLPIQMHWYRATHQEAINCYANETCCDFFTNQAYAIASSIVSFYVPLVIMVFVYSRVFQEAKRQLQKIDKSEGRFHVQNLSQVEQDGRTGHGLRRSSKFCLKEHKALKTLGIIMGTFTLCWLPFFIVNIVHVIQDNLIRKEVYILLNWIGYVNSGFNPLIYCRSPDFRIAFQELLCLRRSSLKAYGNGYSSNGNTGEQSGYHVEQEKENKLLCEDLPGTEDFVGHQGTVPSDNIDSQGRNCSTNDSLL
Sequence of Acetylcholinesterase (P22303 whole entry): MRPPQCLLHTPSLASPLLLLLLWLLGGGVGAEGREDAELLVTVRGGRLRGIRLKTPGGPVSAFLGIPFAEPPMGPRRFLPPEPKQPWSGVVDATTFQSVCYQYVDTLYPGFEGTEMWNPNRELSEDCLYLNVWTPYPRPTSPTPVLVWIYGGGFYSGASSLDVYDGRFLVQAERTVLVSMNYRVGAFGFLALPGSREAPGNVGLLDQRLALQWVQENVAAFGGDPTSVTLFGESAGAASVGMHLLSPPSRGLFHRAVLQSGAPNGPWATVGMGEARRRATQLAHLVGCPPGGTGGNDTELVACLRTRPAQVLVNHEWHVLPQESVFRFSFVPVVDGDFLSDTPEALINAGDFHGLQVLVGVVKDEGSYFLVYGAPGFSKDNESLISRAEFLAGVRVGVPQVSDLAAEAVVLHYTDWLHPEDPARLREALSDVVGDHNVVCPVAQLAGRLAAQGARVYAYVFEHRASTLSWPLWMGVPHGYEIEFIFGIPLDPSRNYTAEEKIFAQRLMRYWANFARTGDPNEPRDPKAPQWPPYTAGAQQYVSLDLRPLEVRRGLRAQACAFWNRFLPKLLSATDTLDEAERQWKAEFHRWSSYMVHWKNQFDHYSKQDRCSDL
Sequence of Gamma-aminobutyric acid receptor subunit alpha-1/alpha-2/beta-2/gamma-2 (P14867 whole entry): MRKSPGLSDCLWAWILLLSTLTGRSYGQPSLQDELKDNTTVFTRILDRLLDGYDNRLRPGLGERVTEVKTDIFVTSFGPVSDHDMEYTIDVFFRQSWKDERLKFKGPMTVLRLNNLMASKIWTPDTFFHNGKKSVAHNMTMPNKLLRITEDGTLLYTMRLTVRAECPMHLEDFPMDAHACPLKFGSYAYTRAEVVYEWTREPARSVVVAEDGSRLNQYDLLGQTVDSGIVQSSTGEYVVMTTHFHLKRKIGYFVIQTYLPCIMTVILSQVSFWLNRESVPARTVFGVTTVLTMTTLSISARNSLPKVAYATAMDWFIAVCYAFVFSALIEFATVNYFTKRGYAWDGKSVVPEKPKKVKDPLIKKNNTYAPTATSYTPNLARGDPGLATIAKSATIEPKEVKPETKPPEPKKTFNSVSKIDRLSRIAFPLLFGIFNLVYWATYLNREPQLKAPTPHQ
Sequence of Gamma-aminobutyric acid receptor subunit alpha-1/alpha-2/beta-2/gamma-2 (P47870 whole entry): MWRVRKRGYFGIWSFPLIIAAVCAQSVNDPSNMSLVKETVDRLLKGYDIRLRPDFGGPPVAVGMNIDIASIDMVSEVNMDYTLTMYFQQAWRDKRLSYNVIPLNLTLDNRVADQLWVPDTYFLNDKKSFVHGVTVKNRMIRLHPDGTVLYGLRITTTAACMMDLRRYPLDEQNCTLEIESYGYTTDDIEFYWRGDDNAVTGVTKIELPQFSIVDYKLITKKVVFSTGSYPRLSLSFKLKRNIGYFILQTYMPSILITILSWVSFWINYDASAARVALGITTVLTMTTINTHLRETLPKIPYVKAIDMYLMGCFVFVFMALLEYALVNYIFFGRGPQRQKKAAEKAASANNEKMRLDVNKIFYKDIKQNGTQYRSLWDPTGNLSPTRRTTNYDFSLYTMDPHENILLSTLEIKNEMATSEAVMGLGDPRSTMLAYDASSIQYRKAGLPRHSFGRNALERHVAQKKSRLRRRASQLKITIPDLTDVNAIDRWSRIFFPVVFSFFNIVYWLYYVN
Sequence of Gamma-aminobutyric acid receptor subunit alpha-1/alpha-2/beta-2/gamma-2 (P18507 whole entry): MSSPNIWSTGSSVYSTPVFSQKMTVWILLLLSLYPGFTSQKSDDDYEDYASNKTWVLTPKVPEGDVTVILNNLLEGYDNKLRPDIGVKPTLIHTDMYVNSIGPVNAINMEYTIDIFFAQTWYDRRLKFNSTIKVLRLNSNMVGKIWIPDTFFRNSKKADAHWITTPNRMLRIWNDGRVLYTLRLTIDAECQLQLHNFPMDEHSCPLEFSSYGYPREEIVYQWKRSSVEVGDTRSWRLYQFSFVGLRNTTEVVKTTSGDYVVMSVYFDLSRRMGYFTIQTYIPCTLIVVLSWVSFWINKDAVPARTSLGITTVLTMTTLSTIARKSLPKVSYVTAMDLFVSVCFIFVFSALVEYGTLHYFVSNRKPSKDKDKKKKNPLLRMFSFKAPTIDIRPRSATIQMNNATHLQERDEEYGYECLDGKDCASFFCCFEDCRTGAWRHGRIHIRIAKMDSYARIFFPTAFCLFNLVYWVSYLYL
Sequence of Gamma-aminobutyric acid receptor subunit alpha-1/alpha-2/beta-2/gamma-2 (P47869 whole entry): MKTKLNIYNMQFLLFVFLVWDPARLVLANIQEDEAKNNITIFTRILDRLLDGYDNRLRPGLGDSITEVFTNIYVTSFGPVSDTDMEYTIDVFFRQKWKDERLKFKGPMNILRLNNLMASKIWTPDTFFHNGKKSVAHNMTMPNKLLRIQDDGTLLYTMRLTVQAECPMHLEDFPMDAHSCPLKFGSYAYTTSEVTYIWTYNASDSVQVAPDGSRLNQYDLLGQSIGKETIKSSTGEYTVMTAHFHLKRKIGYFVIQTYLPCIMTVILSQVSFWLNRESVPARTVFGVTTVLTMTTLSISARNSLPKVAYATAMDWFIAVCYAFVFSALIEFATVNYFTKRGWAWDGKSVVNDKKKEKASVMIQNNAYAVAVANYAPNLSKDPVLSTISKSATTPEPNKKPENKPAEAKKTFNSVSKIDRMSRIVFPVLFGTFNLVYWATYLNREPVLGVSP
Sequence of Vascular endothelial growth factor receptor 2 (P35968 whole entry): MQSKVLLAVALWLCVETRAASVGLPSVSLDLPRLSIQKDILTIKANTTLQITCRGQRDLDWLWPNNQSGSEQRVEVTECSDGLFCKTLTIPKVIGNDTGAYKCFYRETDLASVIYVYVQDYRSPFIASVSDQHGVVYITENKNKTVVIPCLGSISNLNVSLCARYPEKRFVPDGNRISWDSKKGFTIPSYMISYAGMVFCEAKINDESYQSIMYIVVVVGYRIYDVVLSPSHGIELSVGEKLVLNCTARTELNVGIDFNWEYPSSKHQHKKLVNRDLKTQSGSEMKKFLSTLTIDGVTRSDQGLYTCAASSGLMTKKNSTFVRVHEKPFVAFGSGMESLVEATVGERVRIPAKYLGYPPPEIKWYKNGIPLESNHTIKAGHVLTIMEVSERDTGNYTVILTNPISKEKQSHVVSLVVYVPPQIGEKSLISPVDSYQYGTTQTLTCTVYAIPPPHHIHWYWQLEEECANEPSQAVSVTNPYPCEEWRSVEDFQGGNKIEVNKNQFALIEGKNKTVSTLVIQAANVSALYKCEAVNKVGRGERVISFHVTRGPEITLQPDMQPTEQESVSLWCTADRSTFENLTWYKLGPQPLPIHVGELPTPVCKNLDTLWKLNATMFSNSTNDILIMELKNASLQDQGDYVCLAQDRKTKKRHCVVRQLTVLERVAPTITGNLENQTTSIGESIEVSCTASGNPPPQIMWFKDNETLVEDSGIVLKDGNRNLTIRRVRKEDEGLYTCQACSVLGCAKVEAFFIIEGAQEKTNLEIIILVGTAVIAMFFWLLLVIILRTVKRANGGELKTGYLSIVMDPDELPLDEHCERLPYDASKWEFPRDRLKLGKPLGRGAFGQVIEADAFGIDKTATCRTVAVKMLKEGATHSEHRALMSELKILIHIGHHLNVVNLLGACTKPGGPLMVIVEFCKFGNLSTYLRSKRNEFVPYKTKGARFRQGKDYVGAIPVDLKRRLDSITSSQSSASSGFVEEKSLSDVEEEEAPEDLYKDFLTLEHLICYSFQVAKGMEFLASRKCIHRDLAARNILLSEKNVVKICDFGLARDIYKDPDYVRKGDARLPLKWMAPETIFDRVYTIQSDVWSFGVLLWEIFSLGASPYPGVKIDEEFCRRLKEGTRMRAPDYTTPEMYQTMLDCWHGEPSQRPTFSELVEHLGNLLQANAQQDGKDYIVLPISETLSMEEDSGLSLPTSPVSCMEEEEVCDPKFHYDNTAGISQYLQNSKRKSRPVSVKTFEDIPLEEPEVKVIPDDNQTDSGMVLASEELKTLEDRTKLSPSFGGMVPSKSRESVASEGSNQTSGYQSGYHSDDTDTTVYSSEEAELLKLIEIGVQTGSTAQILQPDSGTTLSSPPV

Consider `Nc1nc(N)c2nc(-c3ccccc3)c(N)nc2n1`, for which the AC50 (in test [1]; on B2 bradykinin receptor; in test [2]; on Acetylcholinesterase; in test [3]; on Glucocorticoid receptor) was more than 30 µM in each case. This compound displayed an AC50 in test [4] of more than 30 µM.

Take `Oc1ncnc2[nH]ncc12` [ALLOPURINOL]: the concentration at half-maximal activity (AC50) (in test [1]; at B2 bradykinin receptor; in test [2]; at Acetylcholinesterase; in test [3]; at Glucocorticoid receptor) was more than 30 µM throughout. This compound also came in with an AC50 in test [4] of more than 30 µM.

As to `CN(CCOc1ccc(NS(C)(=O)=O)cc1)CCc1ccc(NS(C)(=O)=O)cc1` [DOFETILIDE], the AC50 at B2 bradykinin receptor is more than 30 µM; in test [2], more than 30 µM; on Acetylcholinesterase, 13.6 µM; in test [3], more than 30 µM; on Glucocorticoid receptor it was more than 30 µM; in test [4], more than 30 µM.

Regarding `COc1cc2c(cc1OC)C(=O)C(CC1CCN(Cc3ccccc3)CC1)C2` (stereo not drawn) [DONEPEZIL], the AC50 (in test [1]; on B2 bradykinin receptor; in test [2]; in test [3]) was more than 30 µM in each case.

On to `CC(C)C(=O)Nc1ccc([N+](=O)[O-])c(C(F)(F)F)c1` [FLUTAMIDE], for which the AC50 on B2 bradykinin receptor is more than 30 µM; in test [2] it was more than 10 µM; at Acetylcholinesterase, more than 30 µM; at Progesterone receptor it was more than 10 µM; in test [3], more than 30 µM; in test [4], more than 30 µM.

Regarding `CC(C(=O)O)c1ccc(N2CC=CC2)c(Cl)c1` (stereo not drawn) [PIRPROFEN], the AC50 (in test [1]; on B2 bradykinin receptor; in test [2]; on Acetylcholinesterase; in test [3]; on Glucocorticoid receptor) was more than 30 µM each time. Besides, in test [4], the AC50 was more than 30 µM.

For `NC(=O)c1cnccn1` [PYRAZINAMIDE], the AC50 (at B2 bradykinin receptor; in test [2]; on Acetylcholinesterase; at Progesterone receptor; in test [3]; at Glucocorticoid receptor) was more than 30 µM each time. This compound also yielded an AC50 in test [4] of more than 30 µM.

For `CCOC(=O)N[C@@H]1CC[C@@H]2[C@@H](C1)C[C@H]1C(=O)O[C@H](C)[C@H]1[C@H]2/C=C/c1ccc(-c2cccc(F)c2)cn1` [VORAPAXAR], the half-maximal activity concentration (AC50) (in test [2]; at Acetylcholinesterase; in test [3]; in test [4]) was more than 30 µM each time.

By AC50 is commonly meant the concentration at which the activity in the assay is half-maximal. Lower therefore signals activity at low concentration.
